Patent publication US6455558B1, “Biocide composition and use” (Avecia Limited, priority 1998, dated 2002)
Several values for one entry are separate records, joined by “and”; a condition that tells them apart may be missing. Identical values can stand only once.

Test system: mixed inoculum of Aureobasidium pullulans, Fusarium solani, Penicillium funicularum, Scopulariopsis brevicaulis and Streptoverticillium waksmanii
Assay: Soil burial test of plasticised PVC strips containing biocide: weight loss after 20 weeks

Question: Which “Actual % Weight Loss” value does the source give for CCCCCCCCn1sccc1=O [OIT, N-n-octyl isothiazolin-3-one] here?
Answer: The value was 3.47% and 4.516% and 4.992% and 5.465%.

Question: Which “Actual % Weight Loss” value does the source give for Zinc Omadine [ZO] here?
Answer: Its value is 4.011% and 3.557% and 3.318% and 2.179%.
